Results on 9 compounds are retold here after patent US20250313530A1, “SMALL MOLECULE INHIBITORS OF INTERLEUKIN-4 AND USES THEREOF” (Trustees of Boston University, priority 2024, published 2025).

The target of series [1] is T1, IL-4 (Homo sapiens, UniProt P05112).
T1 construct: purchased Acros Biosystems IL4-H4218; host or cells: HEK-293
T1 sequence (P05112 25-153): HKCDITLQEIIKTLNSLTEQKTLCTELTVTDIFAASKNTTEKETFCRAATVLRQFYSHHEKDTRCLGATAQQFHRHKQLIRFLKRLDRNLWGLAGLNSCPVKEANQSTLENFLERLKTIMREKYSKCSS
The series is described as follows: HEK-Blue IL-4/IL-13 reporter assay, IL-4 inhibition. The format is cell-based. As to conditions: for inhibition at 10 µM: HEK-Blue; for EC50: dose response, IL-4 inhibition. The method, then: HEK-Blue IL-4/IL-13 Inhibition assay. HEK-Blue IL-4/IL-13 reporter cell lines were purchased from Invivogen and cultured in DMEM with 10% Heat Inactivated Fetal Bovine Serum (FBS), 100 U/ml-100 μg/ml Pen-Strep, 10 μg/ml blasticidin, 100 μg/ml Normocin and 100 μg/ml Zeocin. Cells were tested for secreted embryonic alkaline phosphatase (SEAP) production induced by IL-4 alone prior to small molecule screening.
22.5 μl of small molecule in DMEM 4% DMSO was added to 22.5 μl of 1 ng/ml IL-4 in DMEM in a non-binding 96-well reaction plate for 30 minutes at room temperature. The reaction plate was further incubated for 30-60 min at 37° C. HEK-Blue IL-4/IL-13 reporter cell line was used between passages 11-17. […] Measurements were done in triplicate. The plate was incubated for ˜22-24 hours at 37° C./5% CO2. Quanti-Blue dye was prepared as per the manufacturer's recommendation and 160 μl was dispensed in each well of a 96-well plate (avoid edges to avoid evaporation), 40 μl of cell supernatant was added to the same plate and incubated for 3 hours at 37° C./5% CO2. Optical density was then measured at 650 nm using Molecular Devices SpectraMax M5 Microplate reader. Data was analyzed and plotted using GraphPad Prism 9.2.0.
In general terms: In a reporter assay the amount or activity of a reporter protein is the signal.

Series [2] is described as follows: Mouse hepatic microsome stability. Type of series: in vitro ADME. As to conditions: mouse hepatic microsomes.
The subject of series [3] is B16-F10 cells. The series is described as follows: In vitro cytotoxicity (CellTiter-Glo). The format is cell-based. The following applies: up to 25 μM. The method, then:
CellTiter-Glo 2.0 purchased from Promega G9242) was used to measure cell viability with the Victor-3 plate reader (PerkinElmer) after 24 hours in concentrations of compound up to 25 μM. Vehicle was used as a negative control for both cytotoxicity and growth inhibition, methanol was used as a positive control for cytotoxicity, and 1% FBS was used as a positive control for growth inhibition.

The target in series [4] is T1, IL-4. The series is described as follows: HEK-Blue IL-4/IL-13 reporter assay, IL-4 inhibition. Type of series: cell-based. As to conditions: control: cells with 10 μM compound only, no IL-4.
Series [5] can be described thus: PAMPA membrane permeability. As to conditions: 18 hours incubation. Type of series: in vitro ADME. The method, then: PVDF membranes purchased from Bioassay Systems PAMPA-096 were coated with 5 μL of 4% Phosphatidylcholine (Lecithin, MP Biomedicals 0210214780) in dodecane. […] Permeability was calculated by Pv=C×ln (1−ODA/ODE) cm/s, where ODA is the absorbance of acceptor solution minus blank, and ODE the absorbance of the equilibrium standard minus blank, and C=7.72×10^−6 using an 18-hour incubation time.

Series [6] in a line: Human plasma stability. Type of series: in vitro ADME. As to conditions: listed as Analog 14.
The test system of series [7] is IL-4 induced STAT-6 phosphorylation in Ramos B lymphocytes (type I IL-4 receptor). Kind of series: Ramos STAT-6 phosphorylation assay (western blot). Type of series: cell-based. The method, then:
Ramos cells were purchased from ATCC and maintained in RMPI-1640 with 10% heat-inactivated Fetal Bovine Serum. Cells used for assays were between passages 4 and 8. […] Undiluted cell lysates were run SDS-PAGE and transferred to Immunoblot PVDF membrane using Biorad equipment. Membranes were incubated with 1:1000 primary antibody overnight at 4° C. Membranes were then incubated with 1:50,000 dilution secondary for 1 hour at room temperature. Membranes were then exposed to Femto ECL for 5 minutes and imaged using a Bio-Rad Gel Doc. The brightness/contrast was adjusted in FIJI and the area under the curve of each lane was quantified. The phosphorylated STAT-6 to STAT-6 ratio was calculated and normalized to the amount of total STAT-6. The data was plotted and analyzed using GraphPad Prism 9.2.0.

Series [8] deals with IL-13 (Homo sapiens, UniProt P35225). Kind of series: HEK-Blue IL-4/IL-13 reporter assay, IL-13 inhibition. The format is cell-based. The method, then:
Prior to screening. […] The solution was added to preincubated cells in a 96-well culture plate. The supernatant was then incubated with Quanti-Blue dye for 3 hours and absorbance was measured at 650 nm. Data was analyzed and plotted using GraphPad Prism 9.2.0.

Series [9] concerns IL-4 induced STAT-6 phosphorylation in THP-1 monocytes (type II IL-4 receptor). Kind of series: THP-1 STAT-6 phosphorylation assay (western blot). The format is cell-based. The method, then:
THP-1 cells were received as a gift from the laboratory of Dr. Mark Grinstaff and maintained in RMPI-1640 with […] heat-inactivated Fetal Bovine Serum and 50 μM beta-mercaptoethanol. Cells used for assays were between passages 6 and 10, 10 ng/mL IL-4 was preincubated with experimental sample (vehicle or analogs) for 30 minutes at 37° C. 1 mL of each solution was then added to a pellet of 2 E6 THP-1 cells and pipetted up and down. THP-1 cells were incubated for 30 minutes in the incubator at 37 C/5% CO2. Cells were then spun down and lysed with 200 μL ice-cold RIPA buffer complete with phosphatase and protease inhibitors. Cell lysates were incubated on ice for 30 minutes, spun down and the supernatants were stored at −20° C. until western blot analysis. Undiluted cell lysates were run on SDS-PAGE and transferred to Immunoblot PVDF membrane using Biorad equipment. Membranes were incubated with 1:1000 primary antibody overnight at 4° C. Membranes were then incubated with 1:50,000 dilution secondary for 1 hour at room temperature. Membranes were then exposed to Femto ECL for 5 minutes and imaged using a Bio-Rad Gel Doc. The brightness/contrast was adjusted in FIJI and the area under the curve of each lane was quantified. The phosphorylated STAT-6 to STAT-6 ratio was calculated and normalized to the amount of total STAT-6. The data was plotted and analyzed using GraphPad Prism 9.2.0′.
(In general: Immunoblotting shows a protein as a band on a membrane.)

The target in series [10] is T2, soluble IL-4 (Homo sapiens, UniProt P05112).
T2 sequence (P05112 25-153): T1 sequence (P05112 25-153)
The series is described as follows: Differential scanning fluorimetry (thermal shift), IL-4. The format is binding. As to conditions: soluble IL-4, 2 μM compound, 0.1% DMSO; read-out: Tm shift. The method, then: DSF was performed using BioRad CFX384.
For orientation: Differential scanning fluorimetry follows unfolding on heating by fluorescence.

The nature of series [11]: Mouse plasma stability. Type of series: in vitro ADME.
Series [12] deals with IL-4 induced pSTAT-6 in THP-1 cells. The series is described as follows: THP-1 pSTAT-6 immunofluorescence.
Protocol: IL-4 and analogs or vehicle (DMEM with 2% DMSO) were preincubated for 2 hours at 37° C. After the incubation, IL-4 or IL-4/analogs were incubated with THP-1 cells for 30 min at 37° C./5% CO2. Incubated cells were centrifuged for 5 min at 250×g. After aspirating the supernatant, cells were resuspended in 1×PBS and plated into a MatTek dish coated with Cell Tak adhesive for 30 minutes at room temperature. Cells were fixed with 4% Paraformaldehyde for 1 hour at room temperature. Cells were rinsed twice with 1×PBS and then permeabilized with 0.5% Triton-X for 1 hour at room temperature. Cells were rinsed again with 1×PBS, and blocked for an hour in superblock with 0.05% Tween-20, rinsed twice, and then incubated with anti-pSTAT-6 1:100 diluted in superblock 0.05% Tween-20 overnight at 4° C. (parafilmed to avoid evaporation). Cells were rinsed thrice with 1×PBS and then incubated with Mouse anti-rabbit IgG(H+L) Secondary Antibody-Alexa Fluor 647 for 1 hour at room temperature in the dark. […] Cells were rinsed twice with 1×PBS and left in 1 ml of 1×PBS. Confocal Imaging was done using an Olympus FV10i and images were processed using FIJI.
Where [13] appears, read: 10 μM, IL-4, HEK Blue IL-4/IL-13 reporter assay, read-out: % Inhibition.
The mark [14] stands for this setting: 10 μM, IL-4, HEK Blue IL-4/IL-13 reporter assay.
Where [15] appears, read: HEK Blue IL-4/IL-13 reporter assay, read-out: EC50.

Several values for one entry are separate records, joined by “and”; a condition that tells them apart may be missing. Equal entries are not always repeated. Where two headings read alike, the source gives them in different places.

Chain of IL-13 (P35225 25-146): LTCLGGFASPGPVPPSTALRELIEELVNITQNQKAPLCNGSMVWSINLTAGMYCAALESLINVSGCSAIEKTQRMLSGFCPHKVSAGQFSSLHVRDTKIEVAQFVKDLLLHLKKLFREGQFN

By inhibition is commonly meant the percentage by which the read-out fell short of the control. Consider `N#Cc1c(-c2ccc(O)c(O)c2)cc(C23CC(C2)C3)nc1N` [1A/54, 6-(bicyclo[1.1.1]pentan-1-yl)-4-(3,4-dihydroxyphenyl)-2-imino-2,3-dihydropyridine-3-carbonitrile], for which the inhibition at 10 µM in [1] (setting [13]) worked out at 86.1%. Moreover, the “Mouse hepatic microsome stability (% remaining after 1 hour)” value in [2] is 68.3%.

In general, % Inhibition refers to the share of the control response that was lost under treatment. Higher therefore signals a response far below the control. Broadly, the EC50 is the concentration giving half of the maximal effect. One may read the Hill coefficient as the slope factor of the fitted curve. By Papp is commonly meant the rate of passage across a membrane or cell layer, normalised by area and donor concentration. Read a high Papp as ready permeation. Take `N#Cc1c(-c2ccc(O)c(O)c2)cc(-c2ccc(N)cc2)[nH]c1=N` [Compound 14, 6-(4-aminophenyl)-4-(3,4-dihydroxyphenyl)-2-imino-1,2-dihydropyridine-3-carbonitrile]: the “% Inhibition” value in [1] (setting [14]) was 94.5% and 94.5 ± 1.58% and 94.5 ± 1.68%. The compound further displayed an inhibition at 10 µM in [1] (setting [14]) of over 80%. Also, the concentration for a half-maximal effect (EC50) in series [1] (setting [15]) is 0.67 ± 0.28 µM; in series [1] (values in text, read-out: potency (EC50 of inhibition)), 0.627 µM; in series [8] (soluble IL-13 mediated signaling, HEK Blue IL-4/IL-13 reporter assay), 18.2 µM; in series [9] (Homo sapiens, THP-1 monocytes, western blot, normalized to STAT-6, read-out: EC50 of inhibition of STAT-6 phosphorylation), 0.686 µM. This compound also returned a Hill coefficient in [1] (fit of dose response in HEK Blue IL-4/IL-13 reporter assay) of 1.69±0.25. The “Cytotoxicity in B16-F10 cells (24 hours)” value in [3] is on record as “no toxicity”; in series [3] (listed as Analog 14) it was “n.s. < 25 μM”. In [4], this compound showed an Abs650 of 0.05948 ± 0.000642. For the same compound, the Papp at 18 h, 100 μM in series [5] came to 6.2 ×10⁻⁶ cm/s. For the same compound, in series [6], the “Human plasma stability (% remaining after 3 hours)” value is over 99%/>99%. Further, the inhibition at 0.5 µM in [7] (Homo sapiens, Ramos, read-out: percent inhibition of STAT-6 phosphorylation) worked out at 31.4%. Besides, in series [7] (Ramos B lymphocytes, 50 nM), the “inhibition of phosphorylation of STAT-6” value is listed as “minimum inhibition”. The “fold less potent for IL-13 than for IL-4” value in series [8] (IL-13 EC50 versus IL-4 EC50) was found to be 100 fold. Also, the “Mouse hepatic microsome stability (% remaining after 1 hour)” value in series [2] and in series [2] (listed as Analog 14) was 75.4% in each case. For the same compound, the STAT-6 levels result in [9] (total STAT-6, THP-1 cells) is “not impacted”. For the same compound, the ΔTm at 2 µM in series [10] was determined as 1.66 °C. Besides, the entries for the “Mouse plasma stability (% remaining after 3 hours)” value in series [11] and in series [11] (listed as Analog 14) were over 99% and over 99%/>99%, respectively. The figures for the “STAT-6 phosphorylation by immunofluorescence” value in series [12] (500 nM) and in [12] (5 μM) were “significant reduction in STAT-6 phosphorylation” and “almost no visible STAT-6 phosphorylation”, respectively.

On to `N#Cc1c(-c2ccccc2O)cc(-c2ccc(F)cc2)nc1N` [Compound 47, 2-amino-6-(4-fluorophenyl)-4-(2-hydroxyphenyl)nicotinonitrile], for which the inhibition at 10 µM in series [1] (setting [13]) was 98.8 ± 1.54%. In addition, the half-maximal effective concentration (EC50) in series [1] (setting [15]) was 3.4 µM and 3.45 µM.

For the compound `COc1cc(-c2cc(-c3ccc(F)cc3)[nH]c(=N)c2C#N)ccc1O` [Compound 48, 6-(4-fluorophenyl)-4-(4-hydroxy-3-methoxyphenyl)-2-imino-1,2-dihydropyridine-3-carbonitrile], the inhibition at 10 µM in series [1] (setting [14]) stood at 100 ± 0.49%. Besides, the EC50 in [1] (setting [15]) is 8.4 µM and 6.4 µM.

For the compound `COc1ccc(-c2cc(-c3ccc(F)cc3)[nH]c(=N)c2C#N)cc1O` [Compound 49, 6-(4-fluorophenyl)-4-(3-hydroxy-4-methoxyphenyl)-2-imino-1,2-dihydropyridine-3-carbonitrile], the inhibition at 10 µM in series [1] (setting [14]) worked out at 82.2 ± 7.2%. In series [1] (setting [15]), the concentration for a half-maximal effect (EC50) was 4.02 ± 1.85 µM.

For `N#Cc1c(-c2cccnc2)cc(-c2ccc(F)cc2)[nH]c1=N` [Compound 50, 6′-(4-fluorophenyl)-2′-imino-1′,2′-dihydro-[3,4′-bipyridine]-3′-carbonitrile], the inhibition at 10 µM in series [1] (setting [14]) was determined as 10 ± 17.2%.

Turning to `N#Cc1c(-c2ccc(O)c(C(=O)O)c2)cc(-c2ccc(F)cc2)[nH]c1=N` [Compound 51, 5-(3-cyano-6-(4-fluorophenyl)-2-imino-1,2-dihydropyridin-4-yl)-2-hydroxybenzoic acid], the inhibition at 10 µM in series [1] (setting [13]) is 54.6 ± 11.6%.

`N#Cc1c(-c2ccc(O)c(Br)c2)cc(-c2ccc(F)cc2)[nH]c1=N` [Compound 52, 4-(3-bromo-4-hydroxyphenyl)-6(4-fluorophenyl)-2-imino-1,2-dihydropyridine-3-carbonitrile] yielded an inhibition at 10 µM in [1] (setting [14]) of 58.8 ± 16.5%.

Consider `N#Cc1c(-c2ccc(O)c(I)c2)cc(-c2ccc(F)cc2)[nH]c1=N` [Compound 53, 6(4-fluorophenyl)-4-(4-hydroxy-3-iodophenyl)-2-imino-1,2-dihydropyridine-3-carbonitrile], for which, in series [1] (setting [14]), the inhibition at 10 µM is 58.9 ± 19.9%.
